Results reported in ChEMBL document CHEMBL1128397, “Novel 2,4-diamino-5-substituted-pyrrolo[2,3-d]pyrimidines as classical and nonclassical antifolate inhibitors of dihydrofolate reductases” (J Med Chem, 1995).

T1: Bifunctional dihydrofolate reductase-thymidylate synthase (Toxoplasma gondii, UniProt Q07422)
T1 sequence (Q07422 whole entry): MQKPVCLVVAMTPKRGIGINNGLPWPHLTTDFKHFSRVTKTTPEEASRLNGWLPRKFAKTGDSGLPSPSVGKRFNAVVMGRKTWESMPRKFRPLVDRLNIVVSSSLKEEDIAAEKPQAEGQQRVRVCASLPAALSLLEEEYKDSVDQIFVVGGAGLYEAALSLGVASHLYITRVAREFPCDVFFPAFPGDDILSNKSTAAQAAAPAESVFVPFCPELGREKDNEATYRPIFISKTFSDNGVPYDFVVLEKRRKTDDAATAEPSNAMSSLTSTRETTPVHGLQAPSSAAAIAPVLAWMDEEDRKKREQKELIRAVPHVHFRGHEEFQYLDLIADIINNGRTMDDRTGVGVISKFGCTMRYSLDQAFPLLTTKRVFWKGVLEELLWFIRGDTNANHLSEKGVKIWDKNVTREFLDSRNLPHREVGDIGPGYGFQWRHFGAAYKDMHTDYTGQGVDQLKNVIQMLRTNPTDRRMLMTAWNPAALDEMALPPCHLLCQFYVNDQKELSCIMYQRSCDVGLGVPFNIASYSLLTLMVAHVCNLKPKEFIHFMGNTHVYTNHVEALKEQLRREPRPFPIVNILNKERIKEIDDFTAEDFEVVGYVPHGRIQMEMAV

T2: Dihydrofolate reductase (Pneumocystis carinii, UniProt P16184)
T2 sequence (P16184 whole entry): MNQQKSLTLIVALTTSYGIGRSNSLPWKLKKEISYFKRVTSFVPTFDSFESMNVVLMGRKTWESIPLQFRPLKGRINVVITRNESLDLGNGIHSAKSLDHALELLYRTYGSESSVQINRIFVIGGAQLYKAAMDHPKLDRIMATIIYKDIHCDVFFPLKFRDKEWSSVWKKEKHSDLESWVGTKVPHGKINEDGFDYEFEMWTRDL

T3: Dihydrofolate reductase (Rattus norvegicus, UniProt Q920D2)
T3 sequence (Q920D2 whole entry): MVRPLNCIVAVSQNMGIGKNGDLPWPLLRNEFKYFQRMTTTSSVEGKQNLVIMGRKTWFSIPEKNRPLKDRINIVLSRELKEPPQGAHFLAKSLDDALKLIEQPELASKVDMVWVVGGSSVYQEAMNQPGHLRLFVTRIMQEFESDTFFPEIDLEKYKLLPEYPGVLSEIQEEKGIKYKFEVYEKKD


Assays:
[1] = Relative Vmax of compound was measured.; type: ADME
[2] = test system: CCRF-CEM; assay: Compound was evaluated for the growth inhibition of R30dm, a CCRF-CEM subline resistant to intermittent MTX exposure solely as a result of decreased polyglutamylation.; type: functional, cell-based; conditions: Homo sapiens
[3] = test system: FaDu; assay: Growth inhibition of human squamous carcinoma cell lines following continuous (120 hours) exposure to MTX and compound FaDu cell line; type: functional, cell-based
[4] = test system: CCRF-CEM; assay: Compound was evaluated for the growth inhibition of parental CCRF-CEM; type: functional, cell-based; conditions: Homo sapiens
[5] = test system: A253 cell line; assay: Growth inhibition of human squamous carcinoma cell lines following continuous (120 hours) exposure to MTX and compound A253 cell line; type: functional, cell-based; conditions: A253, 120 h
[6] = test system: CCRF-CEM; assay: Compound was evaluated for the growth inhibition of R2, a CCRF-CEM subline resistant to MTX as a result of deffective uptake.; type: functional, cell-based; conditions: Homo sapiens
[7] = target: T1, Bifunctional dihydrofolate reductase-thymidylate synthase
Description: Inhibition of Toxoplasma gondii (tc) Dihydrofolate reductase

[8] = target: T2, Dihydrofolate reductase
Description: Inhibition of Pneumocystis carinii (pc) Dihydrofolate reductase

[9] = Ratio of IC50 against rat liver DHFR and Pneumocystis carinii DHFR (IC50rl/IC50pc)
[10] = Ratio of the IC50 against rat liver DHFR and Toxoplasma gondii DHFR (IC50rl/IC50tg)
[11] = target: T3, Dihydrofolate reductase
Description: Inhibition of rat liver Dihydrofolate reductase

[12] = compound: Nc1nc(N)c2nc(CNc3ccc(C(=O)N[C@@H](CCC(=O)O)C(=O)O)cc3)cnc2n1; assay: Inhibitory activity of compound was measured for CCRF-CEM human leukemia cell Folyl-polyglutamate synthase
[13] = target: Folylpolyglutamate synthase, mitochondrial (Homo sapiens) (UniProt Q05932); assay: Inhibitory activity of compound was measured for CCRF-CEM human leukemia cell Folyl-polyglutamate synthase

Molecule	IC50 [7]	IC50 [8]	Selectivity ratio [9]	Selectivity ratio [10]	IC50 [11]	also measured
Nc1nc(N)c2c(CNc3ccc(C(=O)NC(CCC(=O)O)C(=O)O)cc3)c[nH]c2n1 (stereo not given)	210 nM	38 nM				Vmax [1]: 0.72; EC50 [2]: 36 nM; EC50 [3]: 22 nM; EC50 [4]: 12.8 nM; EC50 [5]: 46 nM; EC50 [6]: 1650 nM
COc1ccc(OC)c(NCc2c[nH]c3nc(N)nc(N)c23)c1	1700 nM		3.4	92	156000 nM	
COc1cc(NCc2c[nH]c3nc(N)nc(N)c23)cc(OC)c1OC	8100 nM	> 23000 nM	< 2.4	7	56300 nM	
Nc1nc(N)c2c(CNc3cccc4ccccc34)c[nH]c2n1	1100 nM	307000 nM	0.2	53.9	59300 nM	
CCOc1ccc(OCC)c(NCc2c[nH]c3nc(N)nc(N)c23)c1		21000 nM				
CN(Cc1cnc2nc(N)nc(N)c2n1)c1ccc(C(=O)N[C@@H](CCC(=O)O)C(=O)O)cc1 [METHOTREXATE]						EC50 [3]: 31 nM; EC50 [5]: 17 nM
Nc1nc(N)c2c(CNc3ccccc3)c[nH]c2n1			< 1	> 65		
Nc1nc(N)c2nc(CNc3ccc(C(=O)N[C@@H](CCC(=O)O)C(=O)O)cc3)cnc2n1 [AMINOPTERIN]						Vmax [1]: 1
COc1ccc(NCc2c[nH]c3nc(N)nc(N)c23)cc1	6000 nM	279000 nM	0.23	10.5	63000 nM	
Folylpolyglutamate synthase, mitochondrial (Homo sapiens), Q05932 (protein) MSRARSHLRAALFLAAASARGITTQVAARRGLSAWPVPQEPSMEYQDAVRMLNTLQTNAGYLEQVKRQRGDPQTQLEAMELYLARSGLQVEDLDRLNIIHVTGTKGKGSTCAFTECILRSYGLKTGFFSSPHLVQVRERIRINGQPISPELFTKYFWRLYHRLEETKDGSCVSMPPYFRFLTLMAFHVFLQEKVDLAVVEVGIGGAYDCTNIIRKPVVCGVSSLGIDHTSLLGDTVEKIAWQKGGIFKQGVPAFTVLQPEGPLAVLRDRAQQISCPLYLCPMLEALEEGGPPLTLGLEGEHQRSNAALALQLAHCWLQRQDRHGAGEPKASRPGLLWQLPLAPVFQPTSHMRLGLRNTEWPGRTQVLRRGPLTWYLDGAHTASSAQACVRWFRQALQGRERPSGGPEVRVLLFNATGDRDPAALLKLLQPCQFDYAVFCPNLTEVSSTGNADQQNFTVTLDQVLLRCLEHQQHWNHLDEEQASPDLWSAPSPEPGGSASLLLAPHPPHTCSASSLVFSCISHALQWISQGRDPIFQPPSPPKGLLTHPVAHSGASILREAAAIHVLVTGSLHLVGGVLKLLEPALSQ						Km [12]: 4.3 µM; Km [13]: < 1 µM
